Assays:
[1] = test system: electroactive microorganisms
[2] = test system: electroactive microorganisms of the biosensor anode

SMILES	change of open circuit voltage with each spike [1]	decrease in the estimated open circuit voltage [2]
O=S(=O)([O-])[O-].[Cu+2] [Cu, CuSO4]	reduced	–
C=O [formaldehyde]	–	~90%

Source: patent US12704493B2 (priority 2020, dated 2026)
